These are literature values, as cited in US5827682A, “Two-step conversion of vegetable protein isoflavone conjugates to aglucones” (Protein Technologies International, Inc., priority 1996, dated 1998).

SMILES strings stand for the structures.

Data set [1] deals with human breast cancer cells. The settings on record: title of cited article; independence from estrogen receptors and the multi-drug resistance gene.
The test system of data set [2] is human prostate cancer cells. The conditions noted are these: title of cited article.
Data set [3] deals with Epidermal Growth Factor Receptor. The settings on record: title of cited article.

`O=c1c(-c2ccc(O)cc2)coc2cc(O)cc(O)c12` [Genistein, genistein]: in data set [1], the “Inhibition of the growth of human breast cancer cells” value was “Inhibition of the Growth of Human Breast Cancer Cells”. In addition, the “Inhibition of the growth of human prostate cancer cells” value in data set [2] is reported as “Inhibit the Growth of Human Prostate Cancer Cells”. For the same compound, the “Inhibition of epidermal growth factor receptor tyrosine autophosphorylation” value in data set [3] is “not Epidermal Growth Factor Receptor Tyrosine Autophosphorylation”.

In the case of `COc1ccc(-c2coc3cc(O)cc(O)c3c2=O)cc1` [Biochanin A, biochanin A], the “Inhibition of the growth of human prostate cancer cells” value in data set [2] is given as “Inhibit the Growth of Human Prostate Cancer Cells”. Moreover, the “Inhibition of epidermal growth factor receptor tyrosine autophosphorylation” value in data set [3] is recorded as “not Epidermal Growth Factor Receptor Tyrosine Autophosphorylation”.
